Structures can show the parent of a compound that is named as a salt.
Tested on: plasma protein extravasation in the ureter in response to capsaicin
Test: Capsaicin-induced plasma extravasation test
Assay type: in vivo, male Hartley guinea pigs
Conditions: dosed orally 1 h before capsaicin challenge, guinea pig ureter
Procedure: In this test, antiinflammatory activity is determined as the percent inhibition of plasma protein extravasation in the ureter of male Hartley quinea pigs (weighing 300-350 g) in response to the intraperitoneal injection of capsaicin into anesthetized animals. The compounds of the present invention are dissolved in 0.1% methyl cellulose/water and dosed orally 1 h before capsaicin challenge. Evans Blue dye (30 mg/kg) is administered intravenously 5 min before capsaicin challenge. The animals are killed 10 min after capsaicin injection and both right and left ureters are removed. The Evans Blue dye is extracted and determined […]. In the above tests, compounds are considered active if the difference in response between the drug-treated animals and a control group receiving the vehicle alone is statistically significant.

| Compound | ED50 relative to ED50 of non-substituted compound (x) | ED50 (Cavia porcellus, po) |
| --- | --- | --- |
| O=C(O)[C@@H]1CN2CC[C@H]1[C@H](OCc1cc(C(F)(F)F)cc(C(F)(F)F)c1)[C@@H]2C(c1ccccc1)c1ccccc1 [Example 2, (3S,4R,5S,6S)-3,5-bis(trifluoromethyl)benzyoxy)-6-diphenylmethyl-5-(-1-azabicyclo[2.2.2]octane-3-carboxylic acid hydrochloride] | more than 100 times lower | – |
| FC(F)(F)c1cc(CO[C@H]2C3CCN(CC3)[C@H]2C(c2ccccc2)c2ccccc2)cc(C(F)(F)F)c1 [compound (x)] | – | 2.4 mg/kg |

— patent publication US5869499A, “Benzyloxyquinuclidines as substance P antagonists” (Pfizer Inc, priority 1993, dated 1999)
